According to the NIST ThermoML archive (doi:10.1016/j.tca.2016.03.003):
± gives the expanded uncertainty stated by the source.

How the values were obtained:
[1] = DSC
[2] = Molar enthalpy of transition or fusion; conditions: DSC

Row | Triple point temperature ([1]; Crystal 1) | Triple point temperature ([1]; Crystal 2) | Triple point temperature ([1]; Crystal 3) | Triple point temperature ([1]; Crystal 4) | Molar enthalpy of transition or fusion ([2]; Crystal 1) | Molar enthalpy of transition or fusion ([2]; Crystal 2) | SMILES | Triple point temperature ([1]; Metastable crystal)
1 | 244.4 ± 1.2 K | 219.5 ± 1.2 K | 217.7 ± 1.2 K | 184.8 ± 1.2 K |  |  | CC(C)(C)Cl [2-chloro-2-methylpropane] | 
2 | 329.2 ± 1.2 K | 237.5 ± 1.2 K |  |  | 0.937 ± 0.115 kcal/mol | 0.992 ± 0.115 kcal/mol | CC(C)(C)CO [2,2-dimethyl-1-propanol] | 

Row | SMILES | Triple point temperature ([1]; Crystal 1) | Triple point temperature ([1]; Crystal 2) | Triple point temperature ([1]; Crystal 3) | Triple point temperature ([1]; Crystal 4) | Molar enthalpy of transition or fusion ([2]; Crystal 1) | Molar enthalpy of transition or fusion ([2]; Crystal 2) | Triple point temperature ([1]; Metastable crystal)
3 | ClC(Cl)(Cl)Cl [tetrachloromethane] | 250.4 ± 1.2 K | 226.1 ± 1.2 K |  |  |  |  | 245.2 ± 1.2 K
